Assay results as given in patent US20260365653A1, “IRREVERSIBLE MUTEGFR INHIBITORS” (Bayer Aktiengesellschaft, priority 2022, published 2026).

Assays:
[1] = target: T1, mutEGFR (D770_N771insNPG, T790) (Homo sapiens, UniProt P00533, INS770NPG/T790M); assay: mutEGFR (D770_N771insNPG, T790) kinase assay; type: biochemical; conditions: Table 2a, D770_N771insNPG
T1 construct: exact insNPG construct not described; in-house EGFR proteins were N-terminal GST fusions from baculovirus/insect cells (borders R669-A1210 given only for WT, insSVD, insASV)
T1 sequence (P00533 with tags, fused parts or gaps INS770NPG/T790M limits assumed): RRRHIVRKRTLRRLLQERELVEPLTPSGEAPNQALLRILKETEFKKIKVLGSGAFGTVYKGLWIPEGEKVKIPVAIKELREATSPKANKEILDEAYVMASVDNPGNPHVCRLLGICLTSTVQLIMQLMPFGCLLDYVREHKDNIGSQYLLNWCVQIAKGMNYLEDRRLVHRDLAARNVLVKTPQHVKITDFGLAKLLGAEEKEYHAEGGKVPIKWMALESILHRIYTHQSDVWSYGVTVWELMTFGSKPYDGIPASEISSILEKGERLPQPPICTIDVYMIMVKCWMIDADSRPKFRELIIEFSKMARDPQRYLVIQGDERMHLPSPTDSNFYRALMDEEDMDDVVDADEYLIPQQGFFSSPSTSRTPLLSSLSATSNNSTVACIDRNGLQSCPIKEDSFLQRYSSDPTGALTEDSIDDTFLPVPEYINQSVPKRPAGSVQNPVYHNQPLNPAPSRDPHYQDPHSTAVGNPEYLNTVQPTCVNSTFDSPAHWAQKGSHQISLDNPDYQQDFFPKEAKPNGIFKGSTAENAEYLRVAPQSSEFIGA
From the text: The different EGFR proteins used in the biochemical kinase activity inhibition assays were generated inhouse by expression in insect cells using Baculo Virus system and subsequent purification as described in the following paragraphs.
The cDNAs encoding the various protein sequences from human EGFR human (P00533) were optimized for expression in eukaryotic cells and synthesized by the GeneArt Technology at Life Technologies.

BA/F3 (insSVD) cells = assay: Ba/F3-EGFR-insSVD cell survival assay (Cell Titer-Glo); type: cell-based; conditions: Mus musculus, BaF3, 48 h, Table 3a, cell survival, Cell Titer-Glo, with 10 ng/ml EGF, without IL-3
Method in brief: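 Ba/F3 cells stably expressing retroviral EGFR-insSVD or insSVD T790M, grown without IL-3 on 10 ng/ml EGF, 4000 cells/well. Compound pinned in, 48 h at 37° C. Viability by CellTiter-Glo luminescence.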

[2] = target: T2, mutEGFR (D770_N771insSVD) (Homo sapiens, UniProt P00533, DUP768-770); assay: Exon20-Mutant-EGFR (D770_N771insSVD) kinase assay (TR-FRET); type: biochemical; conditions: mutEGFR (D770_N771insSVD) kinase assay IC50, Table 2a; D770_N771insSVD; 2 mM ATP
T2 construct: GST-EGFR #3 (SVD between D770 and N771); made in house; host or cells: Sf9 insect cells (baculovirus)
T2 sequence (P00533 with tags, fused parts or gaps DUP768-770): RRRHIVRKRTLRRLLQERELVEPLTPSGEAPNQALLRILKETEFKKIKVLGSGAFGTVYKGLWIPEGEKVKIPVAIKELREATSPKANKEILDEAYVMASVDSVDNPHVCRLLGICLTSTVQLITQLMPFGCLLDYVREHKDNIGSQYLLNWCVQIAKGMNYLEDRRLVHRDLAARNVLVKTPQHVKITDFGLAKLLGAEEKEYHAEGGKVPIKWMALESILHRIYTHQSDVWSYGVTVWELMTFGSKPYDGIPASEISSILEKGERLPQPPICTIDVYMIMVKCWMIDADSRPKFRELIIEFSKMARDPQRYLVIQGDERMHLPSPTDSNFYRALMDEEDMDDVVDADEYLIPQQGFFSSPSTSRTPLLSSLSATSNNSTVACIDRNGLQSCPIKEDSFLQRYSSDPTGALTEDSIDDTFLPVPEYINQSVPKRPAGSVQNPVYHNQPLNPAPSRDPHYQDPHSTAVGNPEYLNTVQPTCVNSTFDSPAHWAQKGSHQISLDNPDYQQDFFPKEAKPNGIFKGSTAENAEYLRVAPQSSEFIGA

Row | IC50 [1] | IC50 [2] | SMILES | IC50 (BA/F3 (insSVD) cells)
1 | 360 nM | 438 nM | C=CC(=O)N1CCn2nc(-c3ccccc3Cl)c(-c3ccnc4[nH]cc(C)c34)c2C1 [Example 179, 1-[2-(2-chlorophenyl)-3-(3-methyl-1H-pyrrolo[2,3-b]pyridin-4-yl)-6,7-dihydropyrazolo[1,5-a]pyrazin-5(4H)-yl]prop-2-en-1-one] | 265 nM
2 | 61.5 nM | 158 nM | C=CC(=O)N1CCn2nc(-c3cc(Cl)ccc3F)c(-c3ccnc4[nH]cc(C)c34)c2C1 [Example 180, 1-[2-(5-chloro-2-fluorophenyl)-3-(3-methyl-1H-pyrrolo[2,3-b]pyridin-4-yl)-6,7-dihydropyrazolo[1,5-a]pyrazin-5(4H)-yl]prop-2-en-1-one] | 112 nM
3 | 1080 nM | 861 nM | C=CC(=O)N1CCn2nc(-c3ccc(C#N)cc3)c(-c3ccnc4[nH]cc(C)c34)c2C1 [Example 182, 4-[3-(3-methyl-1H-pyrrolo[2,3-b]pyridin-4-yl)-5-(prop-2-enoyl)-4,5,6,7-tetrahydropyrazolo[1,5-a]pyrazin-2-yl]benzonitrile] | 531 nM
4 | 217 nM | 96.8 nM | Cc1c[nH]c2nccc(-c3c(-c4ccc(Cl)cc4)nn4c3CN(C(=O)/C=C/CN(C)C)CC4)c12 [Example 183, (2E)-1-[2-(4-chlorophenyl)-3-(3-methyl-1H-pyrrolo[2,3-b]pyridin-4-yl)-6,7-dihydropyrazolo[1,5-a]pyrazin-5(4H)-yl]-4-(dimethylamino)but-2-en-1-one] | 65.6 nM
5 | 52.8 nM | 155 nM | Cc1c[nH]c2nccc(-c3c(-c4cccc(Cl)c4)nn4c3CN(C(=O)/C=C/CN(C)C)CC4)c12 [Example 184, (2E)-1-[2-(3-chlorophenyl)-3-(3-methyl-1H-pyrrolo[2,3-b]pyridin-4-yl)-6,7-dihydropyrazolo[1,5-a]pyrazin-5(4H)-yl]-4-(dimethylamino)but-2-en-1-one] | 56.6 nM
6 | 129 nM | 210 nM | Cc1c[nH]c2nccc(-c3c(-c4cccc5ccoc45)nn4c3CN(C(=O)/C=C/CN(C)C)CC4)c12 [Example 186, (2E)-1-[2-(1-benzofuran-7-yl)-3-(3-methyl-1H-pyrrolo[2,3-b]pyridin-4-yl)-6,7-dihydropyrazolo[1,5-a]pyrazin-5(4H)-yl]-4-(dimethylamino)but-2-en-1-one formic acid (1:1)] | 557 nM
7 | 11.2 nM | 155 nM | C=CC(=O)N1CCn2nc(-c3ccc(C(F)(F)F)nc3)c(-c3ccncc3)c2C1 [Example 188, 1-[3-(pyridin-4-yl)-2-[6-(trifluoromethyl)pyridin-3-yl]-6,7-dihydropyrazolo[1,5-a]pyrazin-5(4H)-yl]prop-2-en-1-one] | 149 nM
8 | 1.74 nM | 1.02 nM | C=CC(=O)N1CCn2nc(-c3ccccc3)c(-c3ccncc3)c2C1 [Example 189, 1-[2-phenyl-3-(pyridin-4-yl)-6,7-dihydropyrazolo[1,5-a]pyrazin-5(4H)-yl]prop-2-en-1-one] | 22.3 nM
9 | 3.03 nM | 1.03 nM | C=CC(=O)N1CCn2nc(-c3ccc(Cl)c(CC)c3)c(-c3ccncc3)c2C1 [Example 190, 1-[2-(4-chloro-3-ethylphenyl)-3-(pyridin-4-yl)-6,7-dihydropyrazolo[1,5-a]pyrazin-5(4H)-yl]prop-2-en-1-one] | 172 nM
10 | 1.26 nM | 0.626 nM | C=CC(=O)N1CCn2nc(-c3ccc(Cl)cc3CO)c(-c3ccncc3)c2C1 [Example 191, 1-{2-[4-chloro-2-(hydroxymethyl)phenyl]-3-(pyridin-4-yl)-6,7-dihydropyrazolo[1,5-a]pyrazin-5(4H)-yl}prop-2-en-1-one] | 32.9 nM
11 | 2.85 nM | 0.831 nM | C=CC(=O)N1CCn2nc(-c3ccc4[nH]ccc4c3)c(-c3ccncc3)c2C1 [Example 193, 1-[2-(1H-indol-5-yl)-3-(pyridin-4-yl)-6,7-dihydropyrazolo[1,5-a]pyrazin-5(4H)-yl]prop-2-en-1-one] | 45.6 nM
12 | 0.399 nM | 0.144 nM | C=CC(=O)N1CCn2nc(-c3ccc4occc4c3)c(-c3ccncc3)c2C1 [Example 194, 1-[2-(1-benzofuran-5-yl)-3-(pyridin-4-yl)-6,7-dihydropyrazolo[1,5-a]pyrazin-5(4H)-yl]prop-2-en-1-one] | 15.3 nM
13 | 0.421 nM | 0.183 nM | CN(C)C/C=C/C(=O)N1CCn2nc(-c3ccc4sccc4c3)c(-c3ccncc3)c2C1 [Example 196, (2E)-1-[2-(1-benzothiophen-5-yl)-3-(pyridin-4-yl)-6,7-dihydropyrazolo[1,5-a]pyrazin-5(4H)-yl]-4-(dimethylamino)but-2-en-1-one] | 40.4 nM
14 | 8.01 nM | 1.45 nM | CN(C)C/C=C/C(=O)N1CCn2nc(-c3ccc4[nH]ccc4c3)c(-c3ccncc3)c2C1 [Example 197, (2E)-4-(dimethylamino)-1-[2-(1H-indol-5-yl)-3-(pyridin-4-yl)-6,7-dihydropyrazolo[1,5-a]pyrazin-5(4H)-yl]but-2-en-1-one] | 995 nM
15 | 1070 nM | 476 nM | CN(C)C/C=C/C(=O)N1CCn2nc(-c3ccc4nn[nH]c4c3)c(-c3ccncc3)c2C1 [Example 198, (2E)-1-[2-(1H-benzotriazol-6-yl)-3-(pyridin-4-yl)-6,7-dihydropyrazolo[1,5-a]pyrazin-5(4H)-yl]-4-(dimethylamino)but-2-en-1-one] | 6390 nM
16 | 2.05 nM | 0.672 nM | CN(C)C/C=C/C(=O)N1CCn2nc(-c3ccc4occc4c3)c(-c3ccncc3)c2C1 [Example 199, (2E)-1-[2-(1-benzofuran-5-yl)-3-(pyridin-4-yl)-6,7-dihydropyrazolo[1,5-a]pyrazin-5(4H)-yl]-4-(dimethylamino)but-2-en-1-one] | 132 nM
17 | 0.317 nM | 0.161 nM | CN(C)C/C=C/C(=O)N1CCn2nc(-c3ccc4cc[nH]c4c3)c(-c3ccncc3)c2C1 [Example 200, (2E)-4-(dimethylamino)-1-[2-(1H-indol-6-yl)-3-(pyridin-4-yl)-6,7-dihydropyrazolo[1,5-a]pyrazin-5(4H)-yl]but-2-en-1-one] | 69 nM
18 | 2.22 nM | 0.644 nM | C=CC(=O)N1Cc2c(-c3ccncc3)c(-c3ccc(F)cc3)nn2C(C)(C)C1 [Example 207, 1-[2-(4-fluorophenyl)-7,7-dimethyl-3-(pyridin-4-yl)-6,7-dihydropyrazolo[1,5-a]pyrazin-5(4H)-yl]prop-2-en-1-one] | 24.6 nM
19 | 0.365 nM | 0.14 nM | C=CC(=O)N1Cc2c(-c3ccncc3)c(-c3ccc(Cl)c(C)c3)nn2C(C)(C)C1 [Example 208, 1-[2-(4-chloro-3-methylphenyl)-7,7-dimethyl-3-(pyridin-4-yl)-6,7-dihydropyrazolo[1,5-a]pyrazin-5(4H)-yl]prop-2-en-1-one] | 15.8 nM
20 | 0.694 nM | 0.226 nM | C=CC(=O)N1Cc2c(-c3ccncc3)c(-c3ccc(Cl)cc3)nn2C(C)(C)C1 [Example 209, 1-[2-(4-chlorophenyl)-7,7-dimethyl-3-(pyridin-4-yl)-6,7-dihydropyrazolo[1,5-a]pyrazin-5(4H)-yl]prop-2-en-1-one] | 8.15 nM
21 | 60.4 nM | 25.9 nM | C=CC(=O)N1Cc2c(-c3ccncc3)c(-c3ccc(F)cc3)nn2CC1(C)C [Example 210, 1-[2-(4-fluorophenyl)-6,6-dimethyl-3-(pyridin-4-yl)-6,7-dihydropyrazolo[1,5-a]pyrazin-5(4H)-yl]prop-2-en-1-one] | 551 nM
22 | 40.5 nM | 12.5 nM | C=CC(=O)N1Cc2c(-c3ccncc3)c(-c3ccc(Cl)cc3)nn2CC1(C)C [Example 211, 1-[2-(4-chlorophenyl)-6,6-dimethyl-3-(pyridin-4-yl)-6,7-dihydropyrazolo[1,5-a]pyrazin-5(4H)-yl]prop-2-en-1-one] | 378 nM
23 | 10.1 nM | 5.61 nM | C=CC(=O)N1Cc2c(-c3ccncc3)c(-c3ccc(Cl)c(C)c3)nn2CC1(C)C [Example 212, 1-[2-(4-chloro-3-methylphenyl)-6,6-dimethyl-3-(pyridin-4-yl)-6,7-dihydropyrazolo[1,5-a]pyrazin-5(4H)-yl]prop-2-en-1-one] | 296 nM
24 | 3.27 nM | 0.902 nM | CN(C)C/C=C/C(=O)N1Cc2c(-c3ccncc3)c(-c3ccc(F)cc3)nn2C(C)(C)C1 [Example 213, (2E)-4-(dimethylamino)-1-[2-(4-fluorophenyl)-7,7-dimethyl-3-(pyridin-4-yl)-6,7-dihydropyrazolo[1,5-a]pyrazin-5(4H)-yl]but-2-en-1-one] | 112 nM
25 | 0.654 nM | 0.272 nM | Cc1cc(-c2nn3c(c2-c2ccncc2)CN(C(=O)/C=C/CN(C)C)CC3(C)C)ccc1Cl [Example 214, (2E)-1-[2-(4-chloro-3-methylphenyl)-7,7-dimethyl-3-(pyridin-4-yl)-6,7-dihydropyrazolo[1,5-a]pyrazin-5(4H)-yl]-4-(dimethylamino)but-2-en-1-one] | 69 nM
